Assays:
DC-SIGN CRD = biological target: T1, DC-SIGN CRD (Homo sapiens, UniProt Q9NNX6); assay: 19F R2-filtered NMR reporter displacement assay transferred to DC-SIGN; type: binding; conditions: 19F R2-filtered NMR, DC-SIGN CRD 50 μM, pH 7.0, 25° C.
T1 construct: residues 205 to 404; TEV site (C); StreptagII (C); made in house; host or cells: E. coli BL21* (DE3)
T1 sequence (Q9NNX6 250-404): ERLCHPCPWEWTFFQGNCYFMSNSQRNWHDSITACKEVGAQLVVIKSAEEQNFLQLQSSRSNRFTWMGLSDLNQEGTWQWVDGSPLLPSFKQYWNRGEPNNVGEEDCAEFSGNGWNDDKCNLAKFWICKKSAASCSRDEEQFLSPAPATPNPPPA
Description: Langerin and DC-SIGN carbohydrate recognition domain. Expression and purification were conducted as previously published. Briefly, the monomeric ^15N-labeled Langerin and DC-SIGN carbohydrate recognition domains (CRDs) were expressed insolubly in E. coli BL21* (DE3) (Invitrogen). Following enzymatic cell lysis, inclusion bodies were harvested and subsequently solubilized. The sample was centrifuged and the Langerin and DC-SIGN CRDs were refolded overnight via rapid dilution. Next, the sample was dialyzed overnight, centrifuged and purified via StrepTactin affinity chromatography (Iba). After an additional dialysis step overnight, the sample was centrifuged and the buffer was exchanged to 25 mM HEPES with 150 mM NaCl at pH 7.0 using 7 kDa size-exclusion desalting columns (Thermo Scientific) for ^19F R2-filtered and ^15N HSQC NMR experiments. The concentration of Langerin and DC-SIGN CRDs was determined via UV spectroscopy (A280, 0.1%=3.19 and A280, 0.1%=2.98). Purity and monodispersity of Langerin and DC-SIGN CRD samples were analyzed via SDS PAGE and DLS.
General remarks. ^19F R2-filtered NMR experiments were conducted on a PremiumCompact 600 MHz spectrometer (Agilent). […] Apparent relaxation rates R2,obs for the reporter ligand were determined using the CPMG pulse sequence as previously published (Wamhoff, E. C. et al. (19)F Nmr-Guided Design of Glycomimetic Langerin Ligands. ACS Chem Biol, 11, 2407-13 (2016): Carr, H. Y. & Purcell, E. M. Effects of Diffusion on Free Precession in Nuclear Magnetic Resonance Experiments. Phys Rev, 94, 630-638 (1954); Meiboom, S. & Gill, D. Modified Spin-Echo Method for Measuring Nuclear Relaxation Times. Rev Sci Instrum 29, 688-691 (1958)).
Assay development for DC-SIGN. […] Briefly, the KD value and the relaxation rate in bound state R2,b were determined at five concentrations [L]T of reporter ligand 24 in three independent titration experiments. […]
Ki determination. Ki values were determined as previously published for Langerin (Wamhoff, E. C. et al. (19)F NMR-Guided Design of Glycomimetic Langerin Ligands. ACS Chem Biol 11, 2407-13 (2016)). […]

Langerin ECD = biological target: T2, Langerin ECD (Homo sapiens, UniProt Q9UJ71, V278A); assay: 19F R2-filtered NMR reporter displacement assay (Ki determination); type: binding; conditions: Langerin ECD 50 μM, pH 7.8, 25° C.
T2 construct: residues 148 to 328; TEV site (C); StreptagII (C); made in house; host or cells: E. coli BL21* (DE3)
Description: Langerin extracellular domain. Expression and purification were conducted as previously published (Wamhoff, E. C. et al. (19)F Nmr-Guided Design of Glycomimetic Langerin Ligands. ACS Chem Biol, 11, 2407-13 (2016)). Briefly, the trimeric Langerin extracellular domain (ECD) was expressed insolubly in E. coli BL21* (DE3) (Invitrogen). Following enzymatic cell lysis, inclusion bodies were harvested and subsequently solubilized. The sample was centrifuged and the Langerin ECD was refolded overnight via rapid dilution. Next, the sample was dialyzed overnight, centrifuged and purified via mannan-agarose affinity chromatography (Sigma Aldrich). For ^19F R2-filtered NMR and lipid-enzyme-linked lectin assay (Lipid-ELLA) experiments, the buffer was exchanged to 25 mM Tris with 150 mM NaCl and 5 mM CaCl2 at pH 7.8 using 7 kDa size-exclusion desalting columns (Thermo Scientific). For STD NMR experiments, Langerin ECD samples were dialyzed five times for at least 8 h against H2O. Subsequently, the H2O was removed via lyophilization and the residue was stored at −80° C. Prior to STD NMR experiments, the Langerin ECD was dissolved in 25 mM Tris-d11 (Eurisotope) with 100% D2O, 150 mM NaCl and 5 mM CaCl2 at pH 7. The concentration of Langerin ECD was determined via UV spectroscopy (A280, 0.1%=2.45). Purity and monodispersity of Langerin ECD samples were analyzed via SDS PAGE and DLS.
General remarks. ^19F R2-filtered NMR experiments were conducted on a PremiumCompact 600 MHz spectrometer (Agilent). Spectra were processed in MestReNova and data analysis was performed with OriginPro (Mestrelab Research. Mestrenova. 11.0.2. (2016); OriginLab. Originpro. 9.1. (2015)). Experiments with the Langerin ECD were performed at a receptor concentration of 50 μM in 25 mM Tris with 10% D2O, 150 mM NaCl and 5 mM CaCl2 at pH 7.8 and 25° C. Experiments with the DC-SIGN CRD were performed at a receptor concentration of 50 μM in 25 mM HEPES with 10% D2O, 150 mM NaCl and 5 mM CaCl2 at pH 7.0 and 25° C. TFA served as an internal reference at a concentration of 50 μM. Apparent relaxation rates R2,obs for the reporter ligand were determined using the CPMG pulse sequence as previously published (Wamhoff, E. C. et al. (19)F Nmr-Guided Design of Glycomimetic Langerin Ligands. ACS Chem Biol, 11, 2407-13 (2016): Carr, H. Y. & Purcell, E. M. Effects of Diffusion on Free Precession in Nuclear Magnetic Resonance Experiments. Phys Rev, 94, 630-638 (1954); Meiboom, S. & Gill, D. Modified Spin-Echo Method for Measuring Nuclear Relaxation Times. Rev Sci Instrum 29, 688-691 (1958)).
Ki determination. Ki values were determined as previously published for Langerin (Wamhoff, E. C. et al. (19)F NMR-Guided Design of Glycomimetic Langerin Ligands. ACS Chem Biol 11, 2407-13 (2016)). Briefly, titration experiments were conducted at a concentration of 0.1 mM of reporter ligand 24 at five competitor concentrations [I]T. Samples were prepared via serial dilution. For the acids GlcNS, GlcNAc-6-OS and GlcNS-6-OS the pH values were monitored and adjusted to 7.8 if necessary.

T2 sequence (Q9UJ71 148-328 V278A): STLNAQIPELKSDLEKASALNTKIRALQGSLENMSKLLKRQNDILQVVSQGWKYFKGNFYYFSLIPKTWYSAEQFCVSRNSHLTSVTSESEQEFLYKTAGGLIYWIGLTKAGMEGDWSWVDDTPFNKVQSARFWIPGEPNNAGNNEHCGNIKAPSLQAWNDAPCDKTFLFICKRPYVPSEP

Ki (DC-SIGN CRD): 2.7 ± 0.3 mM
Ki (Langerin ECD): 10 ± 1 mM
SMILES: CC(=O)NCCO[C@H]1O[C@H](CO)[C@@H](O)[C@H](O)[C@@H]1O [Man analog 21]
